# Test results taken from US20050153870A1, “Medicinal composition for diagnosis, prevention, or therapy of multiple risk factor syndrome” (priority 2002, published 2005).
# Marks after values point to notes of the source that are not given here.
# Tests used:
# [1] = tested on: Rat; experiment: Glucogenesis in the liver; assay type: in vivo; settings: perorally
# Text: Compounds of this series suppresses hepatic glucogenesis which is induced by administration of dexamethazon to a rat. For this reason, it antagonizes the action of glucocorticoid in vivo. The compound further has an effect of suppressing steroid diabetes characterized by polydipsia and polyurea and urine sugar excretion induced by administering cortisol to a rat. […] These facts strongly support that compounds of this series is useful in preventing and/or treating visceral fat syndrome.
# [2] = tested on: Mouse, rat, beagle dog, quail, DOCA hypertension rat; experiment: Serum cholesterol decreasing effect; assay type: in vivo; settings: incl. rat and quail raised with hyperfat feed
# Procedure: The quails are raised by giving a feed containing 2% cholesterol for 9 months to develop hypercholesteremia, and, in the case of the rats, mineral corticoid and saline are administered to allow them to develop heart and blood vessel disease and then hypercholesteremia.
# [3] = tested on: Anesthetized rat; experiment: Blood pressure decreasing effect, acute test; assay type: in vivo; settings: 2 mg/kg perorally
# Procedure: Compounds of this series has an antihypertensive effect in various types of test animal models. The antihypertensive effect is confirmed not only in an acute test, in which arterial blood pressure of anesthetized rats and dogs is measured, but also in a chronic test using DOCA hypertensive rats, which are prepared by excising one of the kidneys and administering mineral corticoid and saline thereto, naturally-occurring hypertensive rats, which is an animal morbid model of essential hypertensive disease, and ob/ob mice, which are hereditary diabetic obese […].
# [4] = tested on: Mouse; experiment: Appetite suppressing effect; assay type: in vivo; settings: mouse fasted 48 hours; 1 to 2 mg/kg perorally one hour before feeding; feed given for 2 hours
# [5] = tested on: db/db mice; experiment: Blood sugar decreasing effect in db/db mice (Example 7); assay type: in vivo, mouse; settings: for Body weight / Blood sugar level: in feed for a week (MAC 0.05%, AS-103 0.05%, AR-610 0.1%, AF 0.4%, AC 0.05%); for Body weight: control group 44.6 ± 0.9; for Blood sugar level: control group 549.8 ± 21.8; for Blood sugar level, change vs control group / Body weight, change vs control group: in feed for a week, contents as in table
# Procedure: (§1) Powered feed to which ascofuranone (AF) and ascochlorin (AC) as well as its derivatives, 4-0-methylascochlorin (MAC), 4-0-carboxymethylascochlorin (AS-6), and 4-0-nicotinoyl ascochlorin (AS-103) were added to feed at the proportions shown in the table, and the feed were given to db/db mice for a week and then analyzed for blood sugar decreasing effect (8 mice/group).
# [6] = tested on: Lean; experiment: Body weight and blood sugar in Lean mice (Example 7); assay type: in vivo, mouse; settings: for Body weight / Blood sugar level: in feed for a week (MAC 0.05%, AS-103 0.05%, AR-610 0.1%, AF 0.4%, AC 0.05%); for Body weight: control group 20.9 ± 0.8; for Blood sugar level: control group 211.2 ± 7.8; for Blood sugar level, change vs control group / Body weight, change vs control group: in feed for a week, contents as in table
# Procedure: [The procedure below names another variant; the source lists this variant under the same test.] as §1
# [7] = tested on: SHR rat of high-incidence fat deposition group; experiment: Fat deposition on the mesenteric artery; assay type: in vivo; settings: perorally
Compound,glucogenesis performed in the liver [1],serum cholesterol decreasing effect [2],decrease of average blood pressure of the carotid artery [3],amount of feed (appetite suppressing effect) [4],Body weight [5] [g],Blood sugar level [5] [mg/dL],"Blood sugar level, change vs control group [5] [%**]","Body weight, change vs control group [5]",Body weight [6] [g],Blood sugar level [6] [mg/dL],"Blood sugar level, change vs control group [6]","Body weight, change vs control group [6]",fat deposition in a ring form on the mesenteric artery [7]
"CC(/C=C/[C@@]1(C)[C@H](C)CCC(=O)[C@@H]1C)=C\Cc1c(O)c(Cl)c(C)c(C=O)c1O [AC, ascochlorin]",performed in the liver is suppressed.,"carboxymethylascochlorin, and ascofuranone exhibits an effect of decreasing serum",decreases by 20 to 30 mmHg.,feed is suppressed in a dose dependent manner.,38.9 ± 1.8,262.1 ± 11.8,−52.3,−12.8%**,16.1 ± 0.3,184.8 ± 10.9,−12.5%**,−23.0%**,–
"CC(/C=C/C1(C)C(C)CCC(=O)C1C)=C\Cc1c(O)c(C=O)c(C)c(Cl)c1OC(=O)c1cccnc1 (stereo not drawn) [AS-103, 4-0-nicotinoyl ascochlorin]",–,–,–,–,42.0 ± 1.9,331.3 ± 45.2,−39.7,ns,18.4 ± 0.3,181.8 ± 7.6,−13.9%*,−12.0%**,–
"C/C(=C\Cc1c(O)c(Cl)c(C)c(C=O)c1O)CC/C=C(\C)[C@@H]1CC(=O)C(C)(C)O1 [AF, ascofuranone]",–,"carboxymethylascochlorin, and ascofuranone exhibits an effect of decreasing serum",–,–,44.8 ± 1.4,385.5 ± 40.9,−29.9,ns,21.8 ± 0.4,161.1 ± 8.3,−23.7%**,ns,"mesenteric artery, disappearance of fat deposition is accelerated."
